# Key:
# Format in all cases: in vivo
# Details in all cases: Postemergence
# [1] = system: canarygrass (Phalaris minor); assay: Test B postemergence plant response
# Outline: (§1)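 Plants at the 1- to 4-leaf stage (2 to 18 cm tall), grown in pots of peat moss/vermiculite medium with wetting agent and starter nutrients, received postemergence applications of test chemicals. After 13 to 15 days in a greenhouse, injury was rated visually against untreated controls on a 0 (no effect) to 100 (complete control) scale.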
# [2] = system: chickweed (Stellaria media); assay: Test B postemergence plant response
# Outline: as §1
# [3] = system: windgrass (Apera spica-venti); assay: Test B postemergence plant response
# Outline: as §1
# [4] = system: pigweed (Amaranthus retroflexus); assay: Test B pre-/postemergence plant response
# Excerpt: (§2) Seeds of plant species selected from blackgrass (Alopecurus myosuroides), downy bromegrass (Bromus tectorum), green foxtail (Setaria viridis), Italian ryegrass (Lolium multiflorum), wheat (Triticum aestivum), wild oat (Avena fatua), deadnettle (henbit deadnettle, Lamium amplexicaule), galium (catchweed bedstraw, Galium aparine), bermudagrass (Cynodon dactylon), Surinam grass (Brachiaria decumbens), cocklebur (Xanthium strumarium), corn (Zea mays), large crabgrass (Digitaria sanguinalis), woolly cupgrass (Eriochloa villosa), giant foxtail (Setaria faberii), goosegrass (Eleusine indica), johnsongrass (Sorghum halepense), kochia (Kochia scoparia), lambsquarters (Chenopodium album), morningglory (Ipomoea coccinea), nightshade (eastern black nightshade, Solanum ptycanthum), yellow nutsedge (Cyperus esculentus), pigweed (Amaranthus retroflexus), ragweed (common ragweed, Ambrosia elatior), Russian thistle (Salsola kali), soybean (Glycine max), sunflower (common oilseed sunflower, Helianthus annuus) and velvetleaf (Abutilon theophrasti) were planted into a blend of loam soil and sand and treated preemergence with test compounds formulated in a non-phytotoxic solvent mixture which included a surfactant.
# (§3) At the same time, plants selected from these crop and weed species and also winter barley (Hordeum vulgare), canarygrass (Phalaris minor), chickweed (Stellaria media) and windgrass (Apera spica-venti) were planted in pots containing Redi-Earth® planting medium (Scotts Company, 14111 Scottslawn Road, Marysville, Ohio 43041) comprising spaghnum peat moss, vermiculite, wetting agent and starter nutrients and treated with postemergence applications of some of the test chemicals formulated in the same manner. Plants ranged in height from 2 to 18 cm (1- to 4-leaf stage) for postemergence treatments.
# (§4) Treated plants and controls were maintained in a greenhouse for 13 to 15 days, after which time all treated plants were visually evaluated and compared to controls. Plant response ratings, summarized in Table B, are based on a scale of 0 to 100 where 0 is no effect and 100 is complete control. A dash (-) response means no test result.
# [5] = system: Surinam grass (Brachiaria decumbens); assay: Test B pre-/postemergence plant response
# Excerpt: as §2, §3, §4
# [6] = system: Italian ryegrass (Lolium multiflorum); assay: Test B pre-/postemergence plant response
# Excerpt: as §2, §3, §4
# [7] = system: cocklebur (Xanthium strumarium); assay: Test B pre-/postemergence plant response
# Excerpt: as §2, §3, §4
# [8] = system: morningglory (Ipomoea coccinea); assay: Test B pre-/postemergence plant response
# Excerpt: as §2, §3, §4
# [9] = system: downy bromegrass (Bromus tectorum); assay: Test B pre-/postemergence plant response
# Excerpt: as §2, §3, §4
# [10] = system: blackgrass (Alopecurus myosuroides); assay: Test B pre-/postemergence plant response
# Excerpt: as §2, §3, §4
# corn (Zea mays) = assay: Test B pre-/postemergence plant response
# Excerpt: as §2, §3, §4
# [11] = system: giant foxtail (Setaria faberii); assay: Test B pre-/postemergence plant response
# Excerpt: as §2, §3, §4
# wild oat (Avena fatua) = assay: Test B pre-/postemergence plant response
# Excerpt: as §2, §3, §4
# [12] = 31 g ai/ha, 0 to 100 scale (0 no effect, 100 complete control)
# [13] = 62 g ai/ha, scale 0 to 100 (0 no effect, 100 complete control)
# [14] = 125 g ai/ha, scale 0 to 100 (0 no effect, 100 complete control)
# [15] = 250 g ai/ha, scale 0 to 100 (0 no effect, 100 complete control), 13 to 15 days
compound,measurement,setting,value
Cc1cc(-n2c(-c3cccc(F)c3)ncc(C(=O)C3=C(O)CCCC3=O)c2=O)ccc1F [Compound 191],"Plant response rating, Canarygrass",[1]; [12],20
same,"Plant response rating, Canarygrass",[1]; [13],50
same,"Plant response rating, Canarygrass",[1]; [14],60
same,"Plant response rating, Canarygrass",[1]; [15],85
same,"Plant response rating, Chickweed",[2]; [12],98
same,"Plant response rating, Chickweed",[2]; [13],98
same,"Plant response rating, Chickweed",[2]; [14],98
same,"Plant response rating, Chickweed",[2]; [15],100
same,"Plant response rating, Windgrass",[3]; [12],55
same,"Plant response rating, Windgrass",[3]; [13],85
same,"Plant response rating, Windgrass",[3]; [14],85
same,"Plant response rating, Windgrass",[3]; [15],100
same,"Plant response rating, Pigweed",[4]; [12],80
same,"Plant response rating, Pigweed",[4]; [13],85
same,"Plant response rating, Pigweed",[4]; [14],98
same,"Plant response rating, Pigweed",[4]; [15],100
same,"Plant response rating, Surinam Grass",[5]; [12],70
same,"Plant response rating, Surinam Grass",[5]; [13],85
same,"Plant response rating, Surinam Grass",[5]; [14],90
same,"Plant response rating, Surinam Grass",[5]; [15],98
same,"Plant response rating, Ryegrass, Italian",[6]; [12],40
same,"Plant response rating, Ryegrass, Italian",[6]; [13],40
same,"Plant response rating, Ryegrass, Italian",[6]; [14],50
same,"Plant response rating, Ryegrass, Italian",[6]; [15],50
same,"Plant response rating, Cocklebur",[7]; [12],90
same,"Plant response rating, Cocklebur",[7]; [13],98
same,"Plant response rating, Cocklebur",[7]; [14],98
same,"Plant response rating, Cocklebur",[7]; [15],100
same,"Plant response rating, Morningglory",[8]; [12],40
same,"Plant response rating, Morningglory",[8]; [13],65
same,"Plant response rating, Morningglory",[8]; [14],90
same,"Plant response rating, Morningglory",[8]; [15],100
same,"Plant response rating, Bromegrass, Downy",[9]; [12],35
same,"Plant response rating, Bromegrass, Downy",[9]; [13],40
same,"Plant response rating, Bromegrass, Downy",[9]; [14],50
same,"Plant response rating, Bromegrass, Downy",[9]; [15],75
same,"Plant response rating, Blackgrass",[10]; [12],30
same,"Plant response rating, Blackgrass",[10]; [13],45
same,"Plant response rating, Blackgrass",[10]; [14],50
same,"Plant response rating, Blackgrass",[10]; [15],60
same,"Plant response rating, Corn",corn (Zea mays); [12],65
same,"Plant response rating, Corn",corn (Zea mays); [13],75
same,"Plant response rating, Corn",corn (Zea mays); [14],75
same,"Plant response rating, Corn",corn (Zea mays); [15],85
same,"Plant response rating, Foxtail, Giant",[11]; [12],100
same,"Plant response rating, Foxtail, Giant",[11]; [13],100
same,"Plant response rating, Foxtail, Giant",[11]; [14],100
same,"Plant response rating, Foxtail, Giant",[11]; [15],100
same,"Plant response rating, Oat, Wild",wild oat (Avena fatua); [12],50
same,"Plant response rating, Oat, Wild",wild oat (Avena fatua); [13],60
same,"Plant response rating, Oat, Wild",wild oat (Avena fatua); [14],70
same,"Plant response rating, Oat, Wild",wild oat (Avena fatua); [15],80
